Experimental data as given in US20240174690A1, “ANNULATED 2-AMINO-3-CYANO THIOPHENES AND DERIVATIVES FOR THE TREATMENT OF CANCER” (BOEHRINGER INGELHEIM INTERNATIONAL GMBH, priority 2021, published 2024).

Tests used:
[1] = system: KRAS G12D-dependent Ba/F3 cells; assay: Ba/F3 proliferation assay, KRAS G12D; type: cell-based; conditions: Mus musculus, BaF3, 72 h, AlamarBlue
Outline: (§1)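 Ba/F3 cells were retrovirally transduced with KRAS G12 mutant vectors, puromycin-selected (1 μg/mL) and grown without IL-3 to make them KRAS-dependent. Compounds were tested in technical duplicates, viability was read by AlamarBlue fluorescence, and values came from curve fitting.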

[2] = system: KRAS G12C-dependent Ba/F3 cells; assay: Ba/F3 proliferation assay, KRAS G12C; type: cell-based; conditions: Mus musculus, BaF3, 72 h, AlamarBlue
Outline: as §1

[3] = system: KRAS G12V-dependent Ba/F3 cells; assay: Ba/F3 proliferation assay, KRAS G12V; type: cell-based; conditions: Mus musculus, BaF3, 72 h, AlamarBlue;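 also: proliferation IC50 in KRAS G12V-dependent Ba/F3 cells read by AlamarBlue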
Outline: as §1

GP2D cells = assay: GP2D proliferation assay (120 h) (colorectal cancer, G12D); type: cell-based
Outline: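 500 cells/well in DMEM + GlutaMAX + 10% FCS, exposed to a logarithmic compound dose series (DMSO-normalized) for 120 h. Viability read by CellTiter-Glo luminescence as percent of DMSO control, with an untreated T0 read at dosing; IC50 from four-parameter non-linear regression.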

[4] = Metabolic (microsomal) stability assay, human liver microsomes (HLM); type: in vitro ADME; conditions: predicted clearance as percent of liver blood flow, 1 μM
Outline: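 LC-MS/MS tracked parent disappearance at 0, 5, 15, 30 and 60 min in NADPH-initiated incubations with 1 mg/mL human microsomal protein and 1 μM compound at 37°C, pH 7.5. First-order fits gave intrinsic clearance, which was scaled up and reported as % QH. NADPH-free controls were also run.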

CYP3A4 = CYP3A4 (Homo sapiens (Human), UniProt P08684); assay: Mechanism based inhibition of CYP3A4 assay (MBI 3A4); type: in vitro ADME; conditions: hydroxy-midazolam formation after 30 min vs 0 min preincubation, 25 uM, human liver microsomes
Outline: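 Human CYP3A4 activity after 30 min vs 0 min preincubation with test compound; incubate then diluted 1:10 and midazolam added for a 15 min main incubation. Quenched with acetonitrile; hydroxy-midazolam quantified by LC/MS-MS and expressed as % of the 0 min preincubation formation.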

Chain of CYP3A4 (P08684 whole entry): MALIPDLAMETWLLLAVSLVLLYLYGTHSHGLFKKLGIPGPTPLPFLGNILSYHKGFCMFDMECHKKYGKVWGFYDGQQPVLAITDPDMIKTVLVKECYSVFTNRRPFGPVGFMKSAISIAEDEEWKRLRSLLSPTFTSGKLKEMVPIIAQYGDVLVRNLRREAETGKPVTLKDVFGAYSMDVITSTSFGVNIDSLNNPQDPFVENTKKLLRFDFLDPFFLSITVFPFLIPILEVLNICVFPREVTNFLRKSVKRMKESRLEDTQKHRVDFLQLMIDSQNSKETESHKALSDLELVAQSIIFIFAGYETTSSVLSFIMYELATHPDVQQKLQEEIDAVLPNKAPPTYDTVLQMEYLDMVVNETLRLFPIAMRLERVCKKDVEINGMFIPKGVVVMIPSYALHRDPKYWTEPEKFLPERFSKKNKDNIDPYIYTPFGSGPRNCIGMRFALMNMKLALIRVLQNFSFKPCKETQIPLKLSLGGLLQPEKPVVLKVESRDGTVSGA

| Compound | IC50 [1] [nM] | IC50 [2] [nM] | IC50 [3] [nM] | IC50 (GP2D cells) [nM] | HLM QH [4] [%] | MBI 3A4 (CYP3A4) [%] |
| --- | --- | --- | --- | --- | --- | --- |
| C[C@H](Oc1cc(N2C[C@@H](N(C)C)[C@@H](O)C2)nc(-c2noc3c2CCC[C@@]32CCCc3sc(N)c(C#N)c32)n1)[C@@H]1CCCN1C [II-10] | 116 | 844 | 957 | 11 | <24 | 80 |
| C[C@H](Oc1cc(N2CC[C@H](N3CCCCC3)C2)nc(-c2noc3c2CCC[C@@]32CCCc3sc(N)c(C#N)c32)n1)[C@@H]1CCCN1C [II-12] | 20 | 438 | 549 | 9 | <24 | 78 |
| C[C@H](Oc1cc(N2CCN(C)C3(COC3)C2)nc(-c2noc3c2CCC[C@@]32CCCc3sc(N)c(C#N)c32)n1)[C@@H]1CCCN1C [II-13] | 24 | 120 | 247 | 9 | <24 | 70 |
| C[C@H](Oc1cc(N2CC[C@H](N3CCCC3)C2)nc(-c2noc3c2CCC[C@@]32CCCc3sc(N)c(C#N)c32)n1)[C@@H]1CCCN1C [II-14] | 10 | 293 | 771 | 6 | <24 | 83 |
| C[C@H](Oc1cc(N2CC[C@H](N(C)C)C2)nc(-c2noc3c2CCC[C@@]32CCCc3sc(N)c(C#N)c32)n1)[C@@H]1C[C@@H](F)CN1C [II-15] | 14 | 323 | 340 | 9 | <24 | 76 |
| CNC(=O)c1ccn(-c2cc(O[C@@H](C)[C@@H]3CCCN3C)nc(-c3noc4c3CCC[C@@]43CCCc4sc(N)c(C#N)c43)n2)n1 [II-20] | 16 | 2 | 2 | 57 | <24 | 63 |
| C[C@H](Oc1cc(-n2ccc(C(N)=O)n2)nc(-c2noc3c2CCC[C@@]32CCCc3sc(N)c(C#N)c32)n1)[C@@H]1CCCN1C [II-21] | 23 | 4 | 3 | 57 | <24 | 77 |
| C[C@H](Oc1cc(-c2ccn(C)n2)nc(-c2noc3c2CCC[C@@]32CCCc3sc(N)c(C#N)c32)n1)[C@@H]1C[C@@H](F)CN1C [II-27] | 49 | 18 | 16 | 408 | 44 | 71 |
| C[C@H](Oc1cc(N2CCNC3(COC3)C2)nc(-c2noc3c2CCC[C@@]32CCCc3sc(N)c(C#N)c32)n1)[C@@H]1CCCN1C [II-31] | 4 | 69 | 65 | 1 | 42 | 65 |
| C[C@H](Oc1cc(N2CCNC(C)(C)C2)nc(-c2noc3c2CCC[C@@]32CCCc3sc(N)c(C#N)c32)n1)[C@@H]1CCCN1C [II-32] | 3 | 474 | 1220 | 5 | <24 | 79 |
| C[C@H](Oc1cc(N2CC3CCC(C2)N3)nc(-c2noc3c2CCC[C@@]32CCCc3sc(N)c(C#N)c32)n1)[C@@H]1CCCN1C [II-34] | 51 | 527 | 681 | 49 | <24 | 83 |
| C[C@H](Oc1cc(N2CCC(N(C)C)CC2)nc(-c2noc3c2CCC[C@@]32CCCc3sc(N)c(C#N)c32)n1)[C@@H]1CCCN1C [II-48] | 70 | 724 | 581 | 65 | <24 | 84 |
